Reference: patent publication US7531194B2, “Plant extracts for the treatment of rheumatoid arthritis” (Development Center for Biotechnology, priority 2006, dated 2009)

How the values were obtained:
Format in all cases: in vivo, Lewis rats
IL-6 = experiment: Abdominal cavity cell (PEC) culture, cytokine IL-6, CIA rats fed PA crude extracts (Embodiment 2); conditions: LPS 10 μg/ml, 24 hours, FIG. 9
Experimental: (§1) The animal test scheme is shown as FIG. 2. Bovine collagen Type II (Bovine C II) was dissolved in 0.1 M acetic acid solution, stirred to dissolve thoroughly, and formulated into solutions with concentrations of 1.5 and 3 mg/ml, which were stored in 4° C. for later use. For the first immune injection, 100 μl of C II solution was emulsified with an equal amount of CFA, and injected subcutaneously (200 μl/rat) in the root portions of tails of the rats after the emulsification was complete. […] After about 15 days, the second immunization was done. 100 μl of C II solution was emulsified with an equal amount of IFA, and injected subcutaneously (200 μl/rat) in the root portions of tails of the rats after the emulsification was complete. Approximately from Day 20, the symptoms of arthritis were observed (CIA rats), and PA and indomethacin were fed until Day 45. [table] 1. After carbon dioxide euthanasia, the outer furs of the rat abdominal cavity were cut out by scissors, to expose the whole abdominal cavity. 2. HBSS buffer was injected into the abdominal cavity batch-wise by a 10 ml syringe to make a total volume of about 20 ml/rat. 3. The abdominal cavity of the rat was opened after the abdomen was gently kneaded. An incision of about 2 cm was made in the abdominal cavity by using scissors. […] The concentrations of cytokine TNF-α, IL-6, and IL-1β were analyzed by using ELISA kit.

TNF-α = experiment: Abdominal cavity cell (PEC) culture, cytokine TNF-α, CIA rats fed PA crude extracts (Embodiment 2); conditions: LPS 10 μg/ml, 24 hours, FIG. 8
Experimental: as §1

C-reactive protein (CRP) = experiment: Serum C-reactive protein (CRP) analysis of CIA rats fed PA crude extracts (Embodiment 2)
Experimental: The animal test scheme is shown as FIG. 2. Bovine collagen Type II (Bovine C II) was dissolved in 0.1 M acetic acid solution, stirred to dissolve thoroughly, and formulated into solutions with concentrations of 1.5 and 3 mg/ml, which were stored in 4° C. for later use. For the first immune injection, 100 μl of C II solution was emulsified with an equal amount of CFA, and injected subcutaneously (200 μl/rat) in the root portions of tails of the rats after the emulsification was complete. […] After about 15 days, the second immunization was done. 100 μl of C II solution was emulsified with an equal amount of IFA, and injected subcutaneously (200 μl/rat) in the root portions of tails of the rats after the emulsification was complete. Approximately from Day 20, the symptoms of arthritis were observed (CIA rats), and PA and indomethacin were fed until Day 45. [table] 1. CRP ELISA kit was a pre-coated microplate, into which 0.1 ml of appropriately diluted serum sample could be added directly. After being reacted for 1 hour at room temperature, it was washed by the washing buffer four times. 2. Rabbit anti-rat C-reactive protein (CRP) was combined with HRP Ab, diluted with the washing buffer 100 times, and then 0.1 ml was added into each well. […] Finally, O.D value was read out at the wavelength of 450 nm. […]

CIA rats = experiment: Maximum arthritic index (MAI) of CIA rats fed PA crude extracts (Embodiment 2); conditions: gavage until Day 45, PA-H 375, PA-L 75, indomethacin 2.5 mg/kg/day, FIG. 4
Experimental: The animal test scheme is shown as FIG. 2. Bovine collagen Type II (Bovine C II) was dissolved in 0.1 M acetic acid solution, stirred to dissolve thoroughly, and formulated into solutions with concentrations of 1.5 and 3 mg/ml, which were stored in 4° C. for later use. For the first immune injection, 100 μl of C II solution was emulsified with an equal amount of CFA, and injected subcutaneously (200 μl/rat) in the root portions of tails of the rats after the emulsification was complete. […] After about 15 days, the second immunization was done. 100 μl of C II solution was emulsified with an equal amount of IFA, and injected subcutaneously (200 μl/rat) in the root portions of tails of the rats after the emulsification was complete. Approximately from Day 20, the symptoms of arthritis were observed (CIA rats), and PA and indomethacin were fed until Day 45. [table] 2. Evaluation of RA examination: evaluated in maximum arthritic index (MAI) After immunization, the rats were observed three times a week. The changes of redness and swelling or the like in limbs were recorded, and photographs were taken and filed for comparison. […] Maximum arthritic index, average MAI for each group was calculated as follows: Average MAI=Total of MAI recorded in limbs of each rat (0: no CIA occurs, 16: highest score)/4/total rat number of each group

IL-1β = experiment: Abdominal cavity cell (PEC) culture, cytokine IL-1β, CIA rats fed PA crude extracts (Embodiment 2); conditions: LPS 10 μg/ml, 24 hours, FIG. 8
Experimental: as §1

## COc1ccc2c(c1)c(CC(=O)O)c(C)n2C(=O)c1ccc(Cl)cc1 [indomethacin, Indomethacin]
IL-6
  inhibition of PEC secreting IL-6: no effect of inhibiting PEC from secreting inflammatory cytokine
TNF-α
  inhibition of PEC secreting TNF-α: no effect of inhibiting PEC from secreting inflammatory cytokine
C-reactive protein (CRP); Day 35, PA-H 375, PA-L 75, indomethacin 2.5 mg/kg/day, FIG. 7
  effect on serum CRP concentration: efficiently inhibited
C-reactive protein (CRP); Day 45, FIG. 7
  effect on serum CRP concentration: same effects still exist
CIA rats
  effect on the arthritic indices (MAI) of CIA rats: most preferred
IL-1β
  inhibition of PEC secreting IL-1β: no effect of inhibiting PEC from secreting inflammatory cytokine
